Reference: ChEMBL document CHEMBL1136496, “Synthesis and evaluation of optically pure dioxolanes as inhibitors of hepatitis C virus RNA replication” (Bioorg Med Chem Lett, 2003)

system: Nucleic Acid; assay: Concentration required to inhibit HCV RNA replication was determined; format: functional, Hepacivirus hominis

EC50, > 50 µM:
C[C@H]1O[C@@H](CO)O[C@H]1n1ccc2c(O)nc(N)nc21
Nc1nc(O)c2ccn([C@H]3CO[C@@H](CO)O3)c2n1
Nc1ncnc2c1ccn2[C@@H]1CO[C@@H](CO)O1
Nc1ncnc2c1ccn2[C@H]1CO[C@@H](CO)O1
C[C@H]1O[C@@H](CO)O[C@@H]1n1ccc2c(N)ncnc21
C[C@H]1O[C@@H](CO)O[C@H]1n1ccc2c(N)ncnc21
